Read-outs that look alike come from different tables or passages of the source. Marks after values point to notes of the source that are not given here.
Biological target: T1, human FXIIIa (Homo sapiens, UniProt P00488)
T1 construct: purchased Haematologic Technologies (Essex Junction, VT)
T1 sequence (P00488 39-732 limits assumed): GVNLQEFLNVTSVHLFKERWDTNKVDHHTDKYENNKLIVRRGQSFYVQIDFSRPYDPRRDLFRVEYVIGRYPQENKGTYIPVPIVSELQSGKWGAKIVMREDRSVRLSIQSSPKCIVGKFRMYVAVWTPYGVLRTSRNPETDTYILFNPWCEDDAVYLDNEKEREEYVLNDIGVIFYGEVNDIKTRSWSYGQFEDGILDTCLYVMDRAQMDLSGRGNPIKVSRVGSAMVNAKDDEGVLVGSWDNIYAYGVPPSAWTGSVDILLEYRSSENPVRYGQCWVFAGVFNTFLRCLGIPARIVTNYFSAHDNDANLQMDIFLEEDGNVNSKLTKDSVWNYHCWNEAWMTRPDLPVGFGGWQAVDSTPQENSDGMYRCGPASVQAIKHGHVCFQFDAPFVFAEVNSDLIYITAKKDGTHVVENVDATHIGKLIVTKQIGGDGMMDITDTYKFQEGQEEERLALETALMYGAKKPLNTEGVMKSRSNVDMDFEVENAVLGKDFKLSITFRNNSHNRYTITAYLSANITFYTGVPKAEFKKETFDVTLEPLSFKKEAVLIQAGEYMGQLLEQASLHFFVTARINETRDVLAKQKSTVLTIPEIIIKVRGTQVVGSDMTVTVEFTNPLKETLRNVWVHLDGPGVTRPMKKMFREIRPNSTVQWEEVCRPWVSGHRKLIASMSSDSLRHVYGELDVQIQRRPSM
Assay: bisubstrate, fluorescence-based transglutamination assay (dansylcadaverine / N,N-dimethylcasein)
Type: biochemical
Settings: pH 8.0, 37°C; for inhibition at 20 µM: pH 8, 20 μM
Experimental: The library of sulfated molecules was screened for inhibition of human FXIIIa using a modified bisubstrate, fluorescence-based transglutamination assay, as described earlier. Dansylcadaverine and N,N-dimethyl-casein were used as two substrates, which upon FXIIIa-dependence conjugation show a marked increase in fluorescence at 550 nm (λEX = 360 nm). Initial screening was performed at 200 μM NSGM concentration (1–15) or 50–1110 μM GAG concentration (16–22) (Table 1). At these levels, none of GAGs inhibited FXIIIa by more than 5%. […] Trimeric scaffolds 13 and 14 inhibited FXIIIa by 94% and 29%, respectively. […] To identify promising NSGMs from these, screening was performed at a lower concentration (20 μM).
Direct inhibition of human FXIIIa was measured spectrofluorometrically by a bisubstrate, fluorescence-based transglutamination assay at pH 8.0 and 37°C on a microplate reader (FlexStation III, Molecular Devices) (modified from earlier reports). Briefly, to each well of a 96-well microplate containing 80 μL of 50 mM TrisHCl buffer, pH 8.0, containing 100 mM NaCl, 10 mM CaCl2, and 2 mg/mL dimethylcasein was added 5 μL potential NSGM-based inhibitor (0–20 mM aqueous solution) or vehicle, 5 μL DTT (20 mM), and 5 μL enzyme (0.12–1.2 μM) at 37°C. After 5 min incubation, 5 μL of dansylcadaverine (2.5 mM) was rapidly added and the residual enzyme activity was measured from the initial rate of increase in RFU (λEM = 550 nm, λEX = 360 nm). Relative residual enzyme activity (Y) as a function of the concentration of sulfated molecule was fitted using logistic Eq 1 to obtain the potency (IC50), efficacy (ΔY) and Hill slope (HS) of inhibition. In this equation, YM and Yo are the maximal and minimal values of Y.

[1] = pH 8, 200 μM, read-out: FXIIIa inhibition at 200 μM (%)

Structure (SMILES) | inhibition at 20 µM | inhibition at 200 µM [1] | further results
O=S(=O)(O)OC[C@H]1O[C@@](COS(=O)(=O)O)(O[C@H]2O[C@H](COS(=O)(=O)O)[C@@H](OS(=O)(=O)O)[C@H](OS(=O)(=O)O)[C@H]2OS(=O)(=O)O)[C@@H](OS(=O)(=O)O)[C@@H]1OS(=O)(=O)O [Molecule 22, sucrose octasulfate, reference compound] |  | ~17% | 
CO[C@H]1O[C@H](COS(=O)(=O)O)[C@@H](O[C@@H]2O[C@@H](C(=O)O)[C@@H](O[C@H]3O[C@H](COS(=O)(=O)O)[C@@H](O[C@@H]4O[C@H](C(=O)O)[C@@H](O[C@H]5O[C@H](COS(=O)(=O)O)[C@@H](O)[C@H](O)[C@H]5NS(=O)(=O)O)[C@H](O)[C@H]4O)[C@H](OS(=O)(=O)O)[C@H]3NS(=O)(=O)O)[C@H](O)[C@H]2OS(=O)(=O)O)[C@H](O)[C@H]1NS(=O)(=O)O [Molecule 18, fondaparinux, reference compound] |  |  | inhibition at 360 µM (pH 8, at 360 μM): ~0%
O=S(=O)(O)Oc1cc2c(c(OS(=O)(=O)O)c1)C[C@H](OS(=O)(=O)O)[C@@H](c1ccc(OS(=O)(=O)O)c(OS(=O)(=O)O)c1)O2 [Molecule 2] |  | ~30% | FXIIIa inhibition at 200 μM (%): 32 ± 6%
O=c1c(OS(=O)(=O)O)c(-c2ccc(OS(=O)(=O)O)c(OS(=O)(=O)O)c2)oc2cc(OS(=O)(=O)O)cc(OS(=O)(=O)O)c12 [Molecule 1] |  |  | FXIIIa inhibition at 200 μM (%): 31 ± 4^b %; inhibition at 200 µM (pH 8, read-out: FXIIIa inhibition at 200 μM (%), 200 μM): ~30%
NC(=O)CI [IAA, Iodoacetamide, reference compound] |  |  | HS, Hill slope (FXIIIa): 0.8 ± 0.2; IC50: 2.9 ± 0.4 µM; ΔY, efficacy (FXIIIa): 105 ± 10%; ΔY, efficacy (FXIIIa) (listed as Iodoacetamide): ~ 100%

Continued, in another order:

inhibition at 20 µM | inhibition at 200 µM [1] | Structure (SMILES) | further results
27 to 40% | 65 ± 3% | O=c1c(OS(=O)(=O)O)c(-c2ccc(OS(=O)(=O)O)c(OS(=O)(=O)O)c2)oc2cc(OS(=O)(=O)O)cc(OCCOc3cc(OS(=O)(=O)O)cc4oc(-c5ccc(OS(=O)(=O)O)c(OS(=O)(=O)O)c5)c(OS(=O)(=O)O)c(=O)c34)c12 [Molecule 3] | FXIIIa inhibition at 20 μM (%) (20 μM): 26 ± 2%
 | 67 ± 5% | O=c1c(OS(=O)(=O)O)c(-c2ccc(OS(=O)(=O)O)c(OS(=O)(=O)O)c2)oc2cc(OS(=O)(=O)O)cc(OCCCOc3cc(OS(=O)(=O)O)cc4oc(-c5ccc(OS(=O)(=O)O)c(OS(=O)(=O)O)c5)c(OS(=O)(=O)O)c(=O)c34)c12 [Molecule 4] | 
40 ± 3% | 89 ± 5% | O=c1c(OS(=O)(=O)O)c(-c2ccc(OS(=O)(=O)O)c(OS(=O)(=O)O)c2)oc2cc(OS(=O)(=O)O)cc(OCCCCOc3cc(OS(=O)(=O)O)cc4oc(-c5ccc(OS(=O)(=O)O)c(OS(=O)(=O)O)c5)c(OS(=O)(=O)O)c(=O)c34)c12 [Molecule 6] | 
31 ± 3% | 58 ± 4% | O=c1c(OS(=O)(=O)O)c(-c2ccc(OS(=O)(=O)O)c(OS(=O)(=O)O)c2)oc2cc(OS(=O)(=O)O)cc(OC/C=C/COc3cc(OS(=O)(=O)O)cc4oc(-c5ccc(OS(=O)(=O)O)c(OS(=O)(=O)O)c5)c(OS(=O)(=O)O)c(=O)c34)c12 [Molecule 7] | 
 | 84 ± 5% | O=c1c(OS(=O)(=O)O)c(-c2ccc(OS(=O)(=O)O)c(OC/C=C/COc3cc(-c4oc5cc(OS(=O)(=O)O)cc(O)c5c(=O)c4OS(=O)(=O)O)ccc3OS(=O)(=O)O)c2)oc2cc(OS(=O)(=O)O)cc(O)c12 [Molecule 8] | 

Source: article PMC4965010 (PLoS ONE, 2016)
